Read-outs that look alike come from different tables or passages of the source.
Target: T1, integrin α4β7 on α4β7+ memory T helper cells (Homo sapiens, UniProt P13612+P26010)
T1 construct: endogenous in cells
T1 sequence (P13612 34-1032): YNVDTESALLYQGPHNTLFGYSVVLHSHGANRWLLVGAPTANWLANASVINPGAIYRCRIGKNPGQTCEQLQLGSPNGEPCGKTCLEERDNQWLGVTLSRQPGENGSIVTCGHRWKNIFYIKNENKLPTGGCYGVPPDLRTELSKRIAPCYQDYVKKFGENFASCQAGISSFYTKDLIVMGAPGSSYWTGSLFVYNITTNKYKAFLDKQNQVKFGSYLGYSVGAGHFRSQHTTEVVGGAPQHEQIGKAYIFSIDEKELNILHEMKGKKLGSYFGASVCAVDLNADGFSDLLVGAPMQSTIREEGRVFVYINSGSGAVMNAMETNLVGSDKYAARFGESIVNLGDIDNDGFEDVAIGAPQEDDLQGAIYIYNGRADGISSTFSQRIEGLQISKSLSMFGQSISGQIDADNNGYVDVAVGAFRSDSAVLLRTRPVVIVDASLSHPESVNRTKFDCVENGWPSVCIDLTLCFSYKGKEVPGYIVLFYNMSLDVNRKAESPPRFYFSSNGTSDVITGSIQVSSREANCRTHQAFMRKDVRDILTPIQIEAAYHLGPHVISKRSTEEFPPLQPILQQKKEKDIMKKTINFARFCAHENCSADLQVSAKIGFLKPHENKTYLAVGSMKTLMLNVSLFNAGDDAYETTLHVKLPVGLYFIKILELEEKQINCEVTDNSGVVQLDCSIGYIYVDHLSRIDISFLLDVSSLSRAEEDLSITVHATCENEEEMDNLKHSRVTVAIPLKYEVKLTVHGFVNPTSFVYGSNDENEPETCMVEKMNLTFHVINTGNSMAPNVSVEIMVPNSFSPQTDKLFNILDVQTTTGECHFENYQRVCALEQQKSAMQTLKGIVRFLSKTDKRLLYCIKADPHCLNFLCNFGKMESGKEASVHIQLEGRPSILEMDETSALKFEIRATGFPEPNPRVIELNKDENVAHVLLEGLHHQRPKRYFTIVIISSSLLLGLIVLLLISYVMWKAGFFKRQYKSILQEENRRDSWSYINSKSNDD
T1 sequence (P26010 20-798): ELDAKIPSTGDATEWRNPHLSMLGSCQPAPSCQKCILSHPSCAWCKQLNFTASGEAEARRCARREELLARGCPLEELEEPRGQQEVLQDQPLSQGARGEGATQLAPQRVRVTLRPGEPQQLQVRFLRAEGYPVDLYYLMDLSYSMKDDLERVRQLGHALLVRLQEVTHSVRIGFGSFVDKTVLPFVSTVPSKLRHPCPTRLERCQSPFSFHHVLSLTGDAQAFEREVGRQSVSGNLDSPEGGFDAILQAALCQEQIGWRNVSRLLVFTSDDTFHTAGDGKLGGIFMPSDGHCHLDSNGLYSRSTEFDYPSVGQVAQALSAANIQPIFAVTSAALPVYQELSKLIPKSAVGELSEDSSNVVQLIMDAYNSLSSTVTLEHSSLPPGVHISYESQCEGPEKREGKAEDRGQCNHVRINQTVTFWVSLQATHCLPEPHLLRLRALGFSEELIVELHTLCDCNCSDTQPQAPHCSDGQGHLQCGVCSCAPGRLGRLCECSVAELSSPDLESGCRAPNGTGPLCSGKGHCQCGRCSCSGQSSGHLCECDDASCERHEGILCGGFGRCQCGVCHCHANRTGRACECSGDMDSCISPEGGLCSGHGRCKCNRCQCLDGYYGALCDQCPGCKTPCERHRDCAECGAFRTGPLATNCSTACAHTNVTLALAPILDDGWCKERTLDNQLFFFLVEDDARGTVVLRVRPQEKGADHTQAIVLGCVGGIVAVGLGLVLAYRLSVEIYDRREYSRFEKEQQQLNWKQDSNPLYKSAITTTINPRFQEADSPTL
Assay: MAdCAM-1 competition / receptor occupancy assay in human whole blood, α4β7-positive Th memory cells
Format: cell-based
Details: human whole blood
Method in brief: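 Human heparinised whole blood; saturating biotinylated rhMAdCAM-1-Fc or rhVCAM-1-Fc bound 1 h at RT, stained in buffer with 4 mM MnCl2, detected by streptavidin-APC flow cytometry on gated CD45+CD3+CD4+CD45RO+CD49d+ β7+ or β7-lo cells. Occupancy = 100−((% ligand-positive cells with compound/% ligand-positive cells DMSO)*100).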

[1] = inhibition of MAdCAM-1 binding to α4β7-positive Th memory cells, FACS, read-out: MADCAM FACS α4β7 Th mem

## CC(C)C[C@@H]1NC(=O)C[C@H](CCCCN)N(C)C(=O)[C@H](CCCCNC(=O)c2ccccc2-c2ccccc2C(=O)NCCCC[C@@H]2NC(=O)[C@@H]3CCCN3[C@H](C(=O)NC(C)(C)C)[C@H](C)NC(=O)[C@H]([C@@H](C)O)NC(=O)[C@H](CC(=O)O)NC(=O)[C@H](CC(C)C)NC(=O)C[C@H](CCCCN)N(C)C2=O)NC(=O)[C@@H]2CCCN2[C@H](C(=O)NC(C)(C)C)[C@H](C)NC(=O)[C@H]([C@@H](C)O)NC(=O)[C@H](CC(=O)O)NC1=O [Compound 535]
FIG. 7, read-out: IC50, MAdCAM-1 competition on α4β7-positive primary cells
  IC50: 76 nM
[1]
  IC50: 77 nM

## CC(C)C[C@@H]1NC(=O)C[C@H](CCCCN)N(C)C(=O)[C@H](CCCCNC(=O)CCOCCOCCOCCOCCOCCOCCOCCC(=O)NCCCC[C@@H]2NC(=O)[C@@H]3CCCN3[C@H](C(=O)NC(C)(C)C)[C@H](C)NC(=O)[C@H]([C@@H](C)O)NC(=O)[C@H](CC(=O)O)NC(=O)[C@H](CC(C)C)NC(=O)C[C@H](CCCCN)N(C)C2=O)NC(=O)[C@@H]2CCCN2[C@H](C(=O)NC(C)(C)C)[C@H](C)NC(=O)[C@H]([C@@H](C)O)NC(=O)[C@H](CC(=O)O)NC1=O [Compound 536]
[1]
  IC50: 75 nM
